Assay results reported in patent publication US11999716B2, “WDR5 inhibitors and modulators” (priority 2018, dated 2024).
Read-outs that look alike come from different tables or passages of the source.

Test system: MV4:11 human cancer cell lines
Test: Cellular viability / anti-proliferative activity, CellTiter-Glo, 5 day protocol
Format: cell-based
Conditions: read-out: GI50 on cellular proliferation of MV4:11 human cancer cell lines
Description: Cellular Viability of Human Tumor Cell Lines
Anti proliferative activity using MLL-harboring cell lines. […] Viability assays are performed by dispensing 200 cells at 7200 cells/mL into each well of an opaque 384-well plate and adding compounds at the indicated concentrations in a final volume of 32 μL and a final concentration of DMSO of 0.3% for all samples. A certain range of compound concentrations is made through a series of 2-fold dilutions starting 30 μM at the highest, total 22 dilutions. After a set incubation period, 5 day protocol, the viability of cells in each well is assessed using the CellTiter-Glo assay (Promega), read on a 96 Microplane Luminometer (Cytation 3, BioTek). Serial dilutions of each cell type are performed in all assays to generate standard curves and the final densities of cells are determined within the dynamic range of the instrument. GI50 values are calculated based on XLfit software (IDBS, Guildford, UK) with Sigmoidal Dose-Response Model. Each compound is tested in minimum of two replicates. Data are expressed as mean.

[1] = Homo sapiens, MV4-11, 120 h, MV4:11 cells, 5 day incubation, CellTiter-Glo, mean of minimum two replicates

Row | Structure (SMILES) | GI50 [1] | other results
1 | COc1ccnc([C@H](C2CC2)N2CCc3c(cc(Cn4ccnc4C)cc3-c3cn(C)nc3C(F)(F)F)C2=O)c1 [Example 251, (S)-2-(Cyclopropyl(4-methoxypyridin-2-yl)methyl)-7-((2-methyl-1H-imidazol-1-yl)methyl)-5-(1-methyl-3-(trifluoromethyl)-1H-pyrazol-4-yl)-3,4-dihydroisoquinolin-1(2H)-one] | – | GI50 (Homo sapiens, MV4-11, 120 h): < 50 nM
2 | COc1cc(CN2CCc3c(OCC4CC4)cc(Cn4ccn(C)c4=N)cc3C2=O)cc(OC)c1 [Example 75, 5-(Cyclopropylmethoxy)-2-(3,5-dimethoxybenzyl)-7-((2-imino-3-methyl-2,3-dihydro-1H-imidazol-1-yl)methyl)-3,4-dihydroisoquinolin-1(2H)-one] | > 938 nM | –
3 | COc1cc(CN2CCc3c(cc(Cn4ccn(C)c4=N)cc3-c3cn(C)nc3C)C2=O)cc(OC)c1 [Example 70, 2-(3,5-Dimethoxybenzyl)-5-(1,3-dimethyl-1H-pyrazol-4-yl)-7-((2-imino-3-methyl-2,3-dihydro-1H-imidazol-1-yl)methyl)-3,4-dihydroisoquinolin-1(2H)-one] | 77 nM | –
4 | Cc1ccnc([C@H](C2CC2)N2CCc3c(cc(Cn4cnn(C)c4=N)cc3-c3ccc(F)cc3C)C2=O)c1 [Example 126, (S)-2-(Cyclopropyl(4-methylpyridin-2-yl)methyl)-5-(4-fluoro-2-methylphenyl)-7-((5-imino-1-methyl-1,5-dihydro-4H-1,2,4-triazol-4-yl)methyl)-3,4-dihydroisoquinolin-1(2H)-one] | < 50 nM | –
5 | COc1cc(CN2CCc3c(cc(Cn4cc(C)nc4C)cc3-c3ccc(F)cc3C)C2=O)cc(OC)c1 [Example 18, 2-(3,5-Dimethoxybenzyl)-7-((2,4-dimethyl-1H-imidazol-1-yl)methyl)-5-(4-fluoro-2-methylphenyl)-3,4-dihydroisoquinolin-1(2H)-one] | > 938 nM | –
6 | Cc1cc(CN2CCc3c(cc(Cn4ccnc4C)cc3-c3cn(C)nc3C(F)(F)F)C2=O)cnc1Cl [Example 242, 2-((6-Chloro-5-methylpyridin-3-yl)methyl)-7-((2-methyl-1H-imidazol-1-yl)methyl)-5-(1-methyl-3-(trifluoromethyl)-1H-pyrazol-4-yl)-3,4-dihydroisoquinolin-1(2H)-one] | – | GI50 (MV4:11 cells, 5 day incubation, CellTiter-Glo, mean of minimum two replicates): 50 nM
7 | CCc1nccn1Cc1cc2c(c(-c3cn(C)nc3C(F)(F)F)c1)CCN([C@@H](C)c1cc(C)cc(C)n1)C2=O [Example 164, (S)-2-(1-(4,6-Dimethylpyridin-2-yl)ethyl)-7-((2-ethyl-1H-imidazol-1-yl)methyl)-5-(1-methyl-3-(trifluoromethyl)-1H-pyrazol-4-yl)-3,4-dihydroisoquinolin-1(2H)-one] | 57 nM | –
8 | Cc1cc([C@H](C2CC2)N2CCc3c(cc(Cn4ccn(C)c4=N)cc3-c3ccc(F)cc3C)C2=O)ccc1F [Example 32, (S)-2-(Cyclopropyl(4-fluoro-3-methylphenyl)methyl)-5-(4-fluoro-2-methylphenyl)-7-((2-imino-3-methyl-2,3-dihydro-1H-imidazol-1-yl)methyl)-3,4-dihydroisoquinolin-1(2H)-one] | 64 nM | –
9 | COc1ccnc([C@H](C)N2CCc3c(cc(Cn4ccnc4C)cc3-c3cncnc3C(F)(F)F)C2=O)c1 [Example 249, (S)-2-(1-(4-Methoxypyridin-2-yl)ethyl)-7-((2-methyl-1H-imidazol-1-yl)methyl)-5-(4-(trifluoromethyl)pyrimidin-5-yl)-3,4-dihydroisoquinolin-1(2H)-one] | 1970 nM | –
10 | COc1ccnc([C@H](C)N2CCc3c(cc(Cn4ccnc4C)cc3-c3cccnc3C(F)(F)F)C2=O)c1 [Example 192, (S)-2-(1-(4-Methoxypyridin-2-yl)ethyl)-7-((2-methyl-1H-imidazol-1-yl)methyl)-5-(2-(trifluoromethyl)pyridin-3-yl)-3,4-dihydroisoquinolin-1(2H)-one] | 77 nM | –
11 | Cc1nccn1Cc1cc2c(c(-c3cn(C)nc3C(F)(F)F)c1)CCN(Cc1cccc(C3CC3)c1)C2=O [Example 234, 2-(3-Cyclopropylbenzyl)-7-((2-methyl-1H-imidazol-1-yl)methyl)-5-(1-methyl-3-(trifluoromethyl)-1H-pyrazol-4-yl)-3,4-dihydroisoquinolin-1(2H)-one] | 283 nM | –
12 | Cc1nccn1Cc1ccc2c(c1)C(=O)N(Cc1cc(Cl)cc(Cl)c1)CC2 [Example 2, 2-(3,5-Dichlorobenzyl)-7-((2-methyl-1H-imidazol-1-yl)methyl)-3,4-dihydroisoquinolin-1(2H)-one] | > 938 nM | –
13 | COc1cc(CN2CCc3c(cc(Cn4ccnc4C4CC4)cc3-c3ccc(F)cc3C)C2=O)cc(OC)c1 [Example 16, 7-((2-Cyclopropyl-1H-imidazol-1-yl)methyl)-2-(3,5-dimethoxybenzyl)-5-(4-fluoro-2-methylphenyl)-3,4-dihydroisoquinolin-1(2H)-one] | > 938 nM | –
14 | CCc1nccn1Cc1cc2c(c(-c3ccc(F)cc3C)c1)CCN([C@H](c1cc(C)ccn1)C1CC1)C2=O [Example 13, (S)-2-(Cyclopropyl(4-methylpyridin-2-yl)methyl)-7-((2-ethyl-1H-imidazol-1-yl)methyl)-5-(4-fluoro-2-methylphenyl)-3,4-dihydroisoquinolin-1(2H)-one] | 105 nM | –

The next lines start with results.

Row | GI50 [1] | Structure (SMILES) | other results
15 | 217 nM | Cc1cnc(CN2CCc3c(cc(Cn4ccnc4C)cc3-c3cn(C)nc3C(F)(F)F)C2=O)s1 [Example 195, 7-((2-Methyl-1H-imidazol-1-yl)methyl)-5-(1-methyl-3-(trifluoromethyl)-1H-pyrazol-4-yl)-2-((5-methylthiazol-2-yl)methyl)-3,4-dihydroisoquinolin-1(2H)-one] | –
16 | 748 nM | Cc1nccn1Cc1cc2c(c(-c3cn(C)nc3C(F)(F)F)c1)CCN(Cc1ccccc1)C2=O [Example 233, 2-Benzyl-7-((2-methyl-1H-imidazol-1-yl)methyl)-5-(1-methyl-3-(trifluoromethyl)-1H-pyrazol-4-yl)-3,4-dihydroisoquinolin-1(2H)-one] | –
17 | > 938 nM | COc1ccnc(CN2CCc3c(cc(CNC(=N)C(F)(F)F)cc3-c3cn(C)nc3C(F)(F)F)C2=O)c1 [Example 120, 2,2,2-Trifluoro-N-((2-((4-methoxypyridin-2-yl)methyl)-5-(1-methyl-3-(trifluoromethyl)-1H-pyrazol-4-yl)-1-oxo-1,2,3,4-tetrahydroisoquinolin-7-yl)methyl)acetimidamide] | –
18 | < 50 nM | COc1ccnc(CN2CCc3c(cc(CN4CCN(C5CC5)C4=N)cc3-c3cn(C)nc3C(F)(F)F)C2=O)c1 [Example 44, 7-((3-Cyclopropyl-2-iminoimidazolidin-1-yl)methyl)-2-((4-methoxypyridin-2-yl)methyl)-5-(1-methyl-3-(trifluoromethyl)-1H-pyrazol-4-yl)-3,4-dihydroisoquinolin-1(2H)-one] | –
19 | 13400 nM | CCn1cc(-c2cc(Cn3ccnc3C(C)C)cc3c2CCN([C@@H](C)c2cc(OC)ccn2)C3=O)c(C(F)(F)F)n1 [Example 162, (S)-5-(1-Ethyl-3-(trifluoromethyl)-1H-pyrazol-4-yl)-7-((2-isopropyl-1H-imidazol-1-yl)methyl)-2-(1-(4-methoxypyridin-2-yl)ethyl)-3,4-dihydroisoquinolin-1(2H)-one] | –
20 | < 50 nM | CCn1cc(-c2cc(Cn3cnn(C)c3=N)cc3c2CCN(Cc2cc(OC)ccn2)C3=O)c(C(F)(F)F)n1 [Example 123, 5-(1-Ethyl-3-(trifluoromethyl)-1H-pyrazol-4-yl)-7-((5-imino-1-methyl-1,5-dihydro-4H-1,2,4-triazol-4-yl)methyl)-2-((4-methoxypyridin-2-yl)methyl)-3,4-dihydroisoquinolin-1(2H)-one] | –
21 | 553 nM | COc1ccnc(CN2CCc3c(cc(Cn4ccnc4C4CC4)cc3-c3cn(C)nc3C)C2=O)c1 [Example 9, 7-((2-Cyclopropyl-1H-imidazol-1-yl)methyl)-5-(1,3-dimethyl-1H-pyrazol-4-yl)-2-((4-methoxypyridin-2-yl)methyl)-3,4-dihydroisoquinolin-1(2H)-one] | –
22 | < 50 nM | COc1ccnc(CN2CCc3c(cc(Cn4ccoc4=N)cc3-c3cn(C)nc3C(F)(F)F)C2=O)c1 [Example 84, 7-((2-Iminooxazol-3(2H)-yl)methyl)-2-((4-methoxypyridin-2-yl)methyl)-5-(1-methyl-3-(trifluoromethyl)-1H-pyrazol-4-yl)-3,4-dihydroisoquinolin-1(2H)-one] | –
23 | 740 nM | CCn1cc(-c2cc(CN3CCOC3=N)cc3c2CCN(Cc2cc(OC)ccn2)C3=O)cn1 [Example 86, 5-(1-Ethyl-1H-pyrazol-4-yl)-7-((2-iminooxazolidin-3-yl)methyl)-2-((4-methoxypyridin-2-yl)methyl)-3,4-dihydroisoquinolin-1(2H)-one] | –
24 | 54 nM | COc1ccnc(CN2CCc3c(cc(Cn4ccnc4C4CC4)cc3-c3cn(C)nc3C(F)(F)F)C2=O)c1 [Example 11, 7-((2-Cyclopropyl-1H-imidazol-1-yl)methyl)-2-((4-methoxypyridin-2-yl)methyl)-5-(1-methyl-3-(trifluoromethyl)-1H-pyrazol-4-yl)-3,4-dihydroisoquinolin-1(2H)-one] | –
25 | 345 nM | COc1cc(CN2CCc3c(cc(Cn4cnn(C)c4=N)cc3-c3ccc(C)nc3C)C2=O)cc(OC)c1 [Example 127, 2-(3,5-Dimethoxybenzyl)-5-(2,6-dimethylpyridin-3-yl)-7-((5-imino-1-methyl-1,5-dihydro-4H-1,2,4-triazol-4-yl)methyl)-3,4-dihydroisoquinolin-1(2H)-one] | –
